Key:
[1] = Stability against liver homogenate of mice; assay type: in vitro ADME, mice (ICB strain); conditions: for remaining at 1 h: pH 7.2, mouse liver homogenate supernatant, 37° C., contact 60 minutes, read-out: Residual Intact Compound Rate
Experimental: Liver from ICB strain mice was homogenated with a potter's homogenizer (3000 rpm, 10 minutes) together with a 5-fold amount of 0.1M phosphate buffer (pH 7.2). To the supernatant was added 1 ml of a 500 μg/ml (10% methanolic water) of a specimen. After the mixture was reacted at 37° C. for 1 hour, the reaction mixture was heated at 100° C. for 3 minutes. Then, 1 ml of 0.1M phosphate buffer (pH 9.0) was added thereto and extracted with 1 ml of ethyl acetate. The organic layer was subjected to silica gel thin layer chromatograph y (chloroform/methanol/ammonia=15/1.2/0.1). By a chromatographic scanner (283 nm), a formation ratio of the unchanged substance to the hydrolysate was determined and the formation of the hydrolysate was expressed by percentage.

[2] = tested on: resistant bacteria; conditions: drug-resistant bacteria
[3] = tested on: esterase; assay: Hydrolysis by esterase in vivo (particularly in liver)
[4] = tested on: resistant bacteria; conditions: U.S. Pat. No. 4,205,163; cited from earlier work
[5] = tested on: infectious diseases of mice; assay: Experiment of treatment for infectious diseases of mice; assay type: in vivo
[6] = tested on: pathogenic microorganisms; assay: Antibacterial activity in general (in words); assay type: cell-based

Structure (SMILES)	remaining at 1 h [1] [%]	also measured
CCC1OC(=O)CC(O)C(C)C(OC2OC(C)C(OC3CC(C)(O)C(OC(=O)Cc4ccc(C(=O)c5ccccc5)cc4)C(C)O3)C(N(C)C)C2O)C(CC=O)CC(C)C(=O)C=CC(C)=CC1COC1OC(C)C(O)C(OC)C1OC (stereo not shown) [Compound 4, 4"-O-(4-Benzoylphenylacetyl)tylosin]	82	–
CCC1OC(=O)CC(OC(C)=O)C(C)C(OC2OC(C)C(OC3CC(C)(O)C(OC(=O)Cc4ccc(C(C)=O)cc4)C(C)O3)C(N(C)C)C2O)C(CC=O)CC(C)C(=O)C=CC(C)=CC1COC1OC(C)C(O)C(OC)C1OC (stereo not shown) [Compound 10, 3-O-acetyl-4"-O-(4-acetylphenylacetyl)tylosin]	< 95	–
CCC1OC(=O)CC(O)C(C)C(OC2OC(C)C(OC3CC(C)(O)C(OS(=O)(=O)Cc4ccc(F)cc4)C(C)O3)C(N(C)C)C2O)C(CC=O)CC(C)C(=O)C=CC(C)=CC1COC1OC(C)C(O)C(OC)C1OC (stereo not shown) [Compound 7, 4"-O-(4-Fluorobenzylsulfonyl)tylosin]	< 95	–
CCC1OC(=O)CC(O)C(C)C(OC2OC(C)C(OC3CC(C)(O)C(OC(=O)Cc4ccccc4)C(C)O3)C(N(C)C)C2O)C(CC=O)CC(C)C(=O)C=CC(C)=CC1COC1OC(C)C(O)C(OC)C1OC (stereo not shown) [Control 1, reference compound]	–	antibacterial activity against resistant bacteria (in words) [2]: poor in antibacterial activity against resistant bacteria; stability against liver homogenate (in words) ([1]; liver homogenate of mice): good result
CCC1OC(=O)CC(O)C(C)C(OC2OC(C)C(OC3CC(C)(O)C(OC(=O)Cc4ccc(F)cc4)C(C)O3)C(N(C)C)C2O)C(CC=O)CC(C)C(=O)C=CC(C)=CC1COC1OC(C)C(O)C(OC)C1OC (stereo not shown) [Compound 6, 4"-O-(4-Fluorophenylacetyl)tylosin]	95	–
CCC1OC(=O)CC(O)C(C)C(OC2OC(C)C(OC3CC(C)(O)C(OS(=O)(=O)Cc4ccccc4)C(C)O3)C(N(C)C)C2O)C(CC=O)CC(C)C(=O)C=CC(C)=CC1COC1OC(C)C(O)C(OC)C1OC (stereo not shown) [Control 4, reference compound]	0	–
CCC1OC(=O)CC(O)C(C)C(OC2OC(C)C(OC3CC(C)(O)C(OC(=O)Cc4ccc(SC)cc4)C(C)O3)C(N(C)C)C2O)C(CC=O)CC(C)C(=O)C=CC(C)=CC1COC1OC(C)C(O)C(OC)C1OC (stereo not shown) [Compound 2, 4"-O-(4-Methylthiophenylacetyl)tylosin]	84	–
CCC1OC(=O)CC(O)C(C)C(OC2OC(C)C(OC3CC(C)(O)C(OC(=O)Cc4ccc(C(C)=O)cc4)C(C)O3)C(N(C)C)C2O)C(CC=O)CC(C)C(=O)C=CC(C)=CC1COC1OC(C)C(O)C(OC)C1OC (stereo not shown) [Compound 8, 4"-O-(4-Acetylphenylacetyl)tylosin]	< 95	–
CCC1OC(=O)CC(O)C(C)C(OC2OC(C)C(OC3CC(C)(O)C(OC(=O)Cc4ccccc4F)C(C)O3)C(N(C)C)C2O)C(CC=O)CC(C)C(=O)C=CC(C)=CC1COC1OC(C)C(O)C(OC)C1OC (stereo not shown) [Compound 9, 4"-O-(2-Fluorophenylacetyl)tylosin]	95	–
CCC1OC(=O)CC(O)C(C)C(OC2OC(C)C(OC3CC(C)(O)C(OC(=O)Cc4ccccc4)C(C)O3)C(N(C)C)C2O)C(CC=O)CC(C)C(=O)C=CC(C)=CC1COC1OC(C)C(O)C(OC)C1OC (stereo not shown) [Control 3, reference compound]	< 95	–
CCC1OC(=O)CC(O)C(C)C(OC2OC(C)C(OC3CC(C)(O)C(OC(=O)Cc4ccc(S(C)(=O)=O)cc4)C(C)O3)C(N(C)C)C2O)C(CC=O)CC(C)C(=O)C=CC(C)=CC1COC1OC(C)C(O)C(OC)C1OC (stereo not shown) [Compound 1, 4"-O-(4-Methylsulfonylphenylacetyl)tylosin]	89	–
CCC1OC(=O)CC(O)C(C)C(OC2OC(C)C(OC3CC(C)(O)C(OC(=O)Cc4ccc(OC)cc4)C(C)O3)C(N(C)C)C2O)C(CC=O)CC(C)C(=O)C=CC(C)=CC1COC1OC(C)C(O)C(OC)C1OC (stereo not shown) [Compound 5, 4"-O-(4-Methoxyphenylacetyl)tylosin]	94	–
CCC1OC(=O)CC(O)C(C)C(OC2OC(C)C(OC3CC(C)(O)C(OC(=O)CSc4ccccc4)C(C)O3)C(N(C)C)C2O)C(CC=O)CC(C)C(=O)C=CC(C)=CC1COC1OC(C)C(O)C(OC)C1OC (stereo not shown) [Control 2, 4"-O-phenylthioacetyltylosin]	0	hydrolysis by esterase (in words) [3]: completely hydrolyzed by esterase; effectiveness against macrolide-resistant bacteria (in words) [4]: most effective tylosin derivative against macrolide-resistant bacteria; result in experiment of treatment for infectious diseases of mice (in words) [5]: merely unsatisfactory results; antibacterial activity (in words) [6]: high antibacterial activity in vitro
CCC1OC(=O)CC(O)C(C)C(OC2OC(C)C(OC3CC(C)(O)C(OC(=O)Cc4ccc(C(C)=O)cc4)C(C)O3)C(N(C)C)C2O)C(CC=O)CC(C)C(=O)C=CC(C)=CC1C (stereo not shown) [Compound 3]	95	–

Source: patent publication US4612372A, “Tylosin derivatives” (Sanraku Incorporated, priority 1984, dated 1986)
